Test results as given in patent US10816541B2, “Method for predicting side effect of whitening ingredient” (AMOREPACIFIC CORPORATION, priority 2015, dated 2020).
Entries after “also recorded” stand apart in the source; their conditions may differ. Read-outs that look alike come from different tables or passages of the source.

Legend:
[1] = Cytotoxic concentration for HEMn-MP cells depending on treatment time (CCK-8, Test Example 1-1); format: cell-based, human; details: human, HEMn-MP cells (human epidermal melanocytes); for CC50 at 1 day: Day 1; for CC50 at 7 days: Day 7
Description: (§1) The HEMn-MP (human epidermal melanocytes, neonatal, moderately pigmented donor, Cat. No. C-102-5C) cells were purchased from Life Technologies (USA). As a cell culture medium, medium 254 (Cat. No. M-254-500) supplemented with HMGS (Cat. No. S-002-5) was used. The cells were cultured according to the manufacturer's manual and cells during passages 3-8 were used. To summarize, the cells were cultured on a 175 T flask in a 5% CO2 incubator at 37° C. During subculturing, the cells were separated using 0.05% trypsin-EDTA, collected by centrifugation (1200 rpm, 5 minutes) and cultured after seeding to 5×10^3 cells/cm^2. For cytotoxicity test, the cells were seeded onto a 96-well plate with 2×10^4 cells/well, cultured for a day and treated with each substance at 200 μL/well. Then, cytotoxicity was measured after a predetermined time.
(§2) Cytotoxicity was measured with Cell Counting Kit-8 (CCK-8) manufactured by Dojindo Molecular Technologies (USA). After removing the medium from the 96-well plate, 200 μL of 10% CCK-8 in the same medium was added to each well. After incubation at 37° C. for about 2 hours, absorbance of 100 μL of the medium was measured at 450 nm using an ELISA reader. As the cells […], the color of CCK-8 shifts to longer wavelength from colorless to orange color.
(§3) Cell survivability was calculated according to Equation 1. Cell survivability (%)={(Asample−Ab)/(Ac−Ab)}×100 [Equation 1]
(§4) In order to determine the cytotoxic concentration of the whitening ingredients for HEMn-MP (human epidermal melanocytes, neonatal, moderately pigmented donor, Cat. No. C-102-5C) cells, cell survivability (% cell survival rate) was measured as compared to a control group (0.5% DMSO) on days 1 and 7 after treatment with each whitening ingredient at the concentration described in Table 1 (FIG. 2). Based on the measurement result, CC20 and CC50 were calculated for the whitening ingredients and treatment time. Then, the ratio of the cytotoxic concentration on day 7 as compared to day 1 was calculated (Table 2).

HEMn-MP cells [2] = assay: as above; format: cell-based, human
Description: as §1, §2, §3, §4

[3] = Cytotoxic concentration for A375 cells depending on treatment time (CCK-8, Test Example 1-2); format: cell-based, human; details: human, A375 cells (melanoma cell line), A375 cells; for CC50 at 24 hours: Day 1 (24 hours); for CC50 at 3 days: Day 3
Description: (§5) The A375 (human melanoma cell line) cells were purchased from the ATCC (Cat. No. CRL-1619, USA). As a cell culture medium, DMEM (Cat. No. 12-604, Lonza, USA) supplemented with 10% FBS (Cat. No. 16000-044, Gibco, USA) was used. Subculturing and cytotoxicity test were conducted in the same manner as for the HEM cells.
as §2, §3
(§6) The cytotoxicity of the whitening ingredients for A375 (human melanoma cell line, Cat. No. CRL-1619) cells with different treatment time was investigated. The toxicity was measured for 3 different sample treatment conditions. The cytotoxicity was measured after treating with the whitening ingredients for 24 hours, after treating with the samples for 24 hours and 48 hours later after exchanging with fresh media, and after treating with the samples for 72 hours without exchange of media. The result is shown as graphs (FIG. 3). Based on the measurement result, CC20 and CC50 were calculated for the whitening ingredients and treatment time. Then, the ratio of the cytotoxic concentration on day 3 as compared to day 1 was calculated (Table 3).

A375 cells = assay: as above; format: cell-based, human; details: for Change in cytotoxicity after removal of the samples: A375 cells treated for a day, then cultured further for 2 days after removing the samples; for CC20 / CC50: A375 cells
Description: as §5, §2, §3, §6

HEMn-MP cells [4] = assay: Inhibition of melanin production in HEMn-MP cells and correlation factor with cytotoxic concentration (Test Example 2); format: cell-based, human; details: for CC20/EC50 / EC50 / CC50/EC50: HEMn-MP cells, day 7; for CC20/EC50: 20% cytotoxic concentration divided by EC50 of melanin production; for EC50: read-out: EC50 (50% inhibitory concentration of melanin synthesis); for CC50/EC50: 50% cytotoxic concentration divided by EC50 of melanin production
Description: The inhibitory effect of melanin production of the whitening ingredients for HEMn-MP cells was investigated. After treating the cells with the samples at concentrations shown in Table 4 and culturing for 7 days, the amount of melanin was measured as compared to a control group (0.5% DMSO) (FIG. 4). Also, EC50 (50% effective inhibitory concentration of melanin production) was calculated for the whitening ingredients (Table 5). Then, CC20 or CC50 was divided by EC50 to investigate the correlation factor (difference) between the cytotoxicity and the effective inhibitory concentration of melanin production (Table 6).
Table 6 compares the correlation factor between the cytotoxic concentration (CC50) and the inhibitory concentration of melanin synthesis (EC50) of the whitening ingredients on day 7. CC20/EC50 is the value obtained by dividing the 20% cytotoxic concentration by the 50% effective inhibitory concentration of melanin production and represents the correlation factor of the 20% cytotoxic concentration and the effective concentration. CC50/EC50 is the value obtained by dividing the 50% cytotoxic concentration by the 50% effective inhibitory concentration of melanin production and represents the correlation factor of the 50% cytotoxic concentration and the effective concentration.

HEMn-MP cells [5] = assay: Cytotoxicity for HEMn-MP cells with or without UVB radiation (Test Example 3); format: cell-based, human; details: UVB 20 mJ/cm^3 irradiated vs unirradiated HEMn-MP cells, day 7
Text: In order to investigate the effect of UVB radiation on the cytotoxicity of the whitening ingredients, cytotoxicity was compared for groups treated with the whitening ingredients without UVB radiation and groups irradiated with UVB at […] and then treated with the whitening ingredients (FIG. 5). That is to say, the response of the cells excited by UVB radiation to various whitening ingredients was investigated. After irradiating the cells with UVB and treating the cells with the samples, increase in cytotoxicity was determined and the ratio of cytotoxicity as compared to before the treatment was calculated (Table 7).
The ratio (%) of toxicity for the UVB-irradiated cells as compared to UVB-unirradiated cells was determined at representative concentrations (3 points) for each whitening ingredient. The ratio was corrected for the cytotoxicity of the control group (15-20%).

[6] = consumers of commercialized skin whitening products, cited from earlier work

SMILES: COc1cc(OC)c(C23CC4CC(CC(C4)C2)C3)cc1C(=O)NCc1ccc(O)cc1O [AP, 5-adamantan-1-yl-N-(2,4-dihydroxybenzyl)-2,4-dimethoxy-benzoic acid amide]
- CC50 at 1 day [1]: 5.4 ± 0.3 µM
- CC50 at 7 days [1]: 2.5 µM
- CC20 (HEMn-MP cells [2]; Day 1): 3.3 ± 0.4 µM
- CC20 (HEMn-MP cells [2]; Day 7): 1.3 ± 0.0 µM
- CC50 at 24 hours [3]: 33.8 ± 0.7 µM
- CC50 at 3 days [3]: 19.99 ± 0.06 µM
- Change in cytotoxicity after removal of the samples (A375 cells): no more increase in cytotoxicity
- CC20 (A375 cells; Day 1 (24 hours)): 25.5 ± 0.8 µM
- CC20 (A375 cells; Day 3): 17.2 ± 0.09 µM
- CC20/EC50 (HEMn-MP cells [4]): 11.8 Fold
- EC50 (HEMn-MP cells [4]; Homo sapiens, 168 h): 0.11 ± 0.01 µM
- Inhibitory effect of melanin production by melanocytes (HEMn-MP cells [4]; Test Example 2): excellent inhibitory effect of melanin production
- Ratio of cytotoxicity (HEMn-MP cells [5]; 0.39 μM): 2%
- Ratio of cytotoxicity (HEMn-MP cells [5]; 0.78 μM): 14%
- Ratio of cytotoxicity (HEMn-MP cells [5]; 1.56 μM): 0%

SMILES: Oc1ccc(OCc2ccccc2)cc1 [MB, 4-benzyloxy-phenol]
- CC50 at 1 day [1]: 284 ± 28.2 µM
- CC50 at 7 days [1]: 19 ± 0.7 µM
- CC20 (HEMn-MP cells [2]; Day 1): 178.2 ± 21.6 µM
- CC20 (HEMn-MP cells [2]; Day 7): 8.9 ± 0.4 µM
- CC50 at 24 hours [3]: 295 ± 7.2 µM
- CC50 at 3 days [3]: 7.19 ± 0.14 µM
- Change in cytotoxicity after removal of the samples (A375 cells): continuously increased toxicity
- CC20 (A375 cells; Day 1 (24 hours)): 119.8 ± 4.7 µM
- CC20 (A375 cells; Day 3): 2.31 ± 0.07 µM
- CC20/EC50 (HEMn-MP cells [4]): 1.3 Fold
- CC50/EC50 (HEMn-MP cells [4]): 2.8 Fold
- EC50 (HEMn-MP cells [4]; Homo sapiens, 168 h): 6.8 ± 2.5 µM
- Clinical side effect reported by users [6]: leukoderma-like side effects

SMILES: CCCCc1ccc(O)cc1O [RC, 4-butylresorcinol]
- CC50 at 1 day [1]: 347 ± 12.7 µM
- CC50 at 7 days [1]: 284 ± 20.4 µM
- CC20 (HEMn-MP cells [2]; Day 1): 170.2 ± 15.9 µM
- CC20 (HEMn-MP cells [2]; Day 7): 69.7 ± 6.1 µM
- CC50 at 24 hours [3]: 508 ± 11.3 µM
- CC50 at 3 days [3]: 122 ± 11 µM
- Change in cytotoxicity after removal of the samples (A375 cells): no more increase in cytotoxicity
- CC20 (A375 cells; Day 1 (24 hours)): 313.9 ± 10.6 µM
- CC20 (A375 cells; Day 3): 52.73 ± 4.67 µM
- CC20/EC50 (HEMn-MP cells [4]): >20 Fold
- EC50 (HEMn-MP cells [4]; Homo sapiens, 168 h): 2.7 ± 0.6 µM
- Ratio of cytotoxicity (HEMn-MP cells [5]; 31.25 μM): 0%
- Ratio of cytotoxicity (HEMn-MP cells [5]; 62.5 μM): 0%
- Ratio of cytotoxicity (HEMn-MP cells [5]; 125 μM): 0%
- Clinical side effect reported by users ([6]; listed as rucinol): no clinical side effect has been reported; also recorded: no clinical problem has been reported

SMILES: C[C@@H](O)CCc1ccc(O)cc1 [RD, rhododenol]
- CC20 (HEMn-MP cells [2]; Day 1): 7100 ± 800 µM
- CC50 (HEMn-MP cells [2]; Day 1): 10800 ± 700 µM
- CC20 (HEMn-MP cells [2]; Day 7): 1000 ± 0 µM
- CC50 (HEMn-MP cells [2]; Day 7): 2400 ± 100 µM
- Change in cytotoxicity after removal of the samples (A375 cells): continuously increased toxicity
- CC20 (A375 cells; Day 1 (24 hours)): 4200 ± 200 µM
- CC50 (A375 cells; Day 1 (24 hours)): 8400 ± 200 µM
- CC20 (A375 cells; Day 3): 190 ± 10 µM
- CC50 (A375 cells; Day 3): 500 ± 20 µM
- CC20/EC50 (HEMn-MP cells [4]): 0.8 Fold
- CC50/EC50 (HEMn-MP cells [4]): 2.1 Fold
- EC50 (HEMn-MP cells [4]): 1130 ± 160 µM
- Ratio of cytotoxicity (HEMn-MP cells [5]; 1.25 mM): 24%
- Ratio of cytotoxicity (HEMn-MP cells [5]; 2.5 mM): 27%
- Ratio of cytotoxicity (HEMn-MP cells [5]; 5 mM): 15%
- Clinical side effect reported by users [6]: leukoderma-like side effects; also recorded: leukoderma-like symptoms

SMILES: CC(=O)CCc1ccc(O)cc1 [RK, raspberry ketone]
- CC50 at 1 day [1]: 10400 ± 200 µM
- CC50 at 7 days [1]: 1400 ± 400 µM
- CC20 (HEMn-MP cells [2]; Day 1): 6500 ± 200 µM
- CC20 (HEMn-MP cells [2]; Day 7): 400 ± 100 µM
- CC50 at 24 hours [3]: 10700 ± 100 µM
- CC50 at 3 days [3]: 790 ± 40 µM
- Change in cytotoxicity after removal of the samples (A375 cells): continuously increased toxicity
- CC20 (A375 cells; Day 1 (24 hours)): 6700 ± 100 µM
- CC20 (A375 cells; Day 3): 240 ± 20 µM
- CC20/EC50 (HEMn-MP cells [4]): 0.4 Fold
- CC50/EC50 (HEMn-MP cells [4]): 1.4 Fold
- EC50 (HEMn-MP cells [4]; Homo sapiens, 168 h): 970 ± 90 µM
- Ratio of cytotoxicity (HEMn-MP cells [5]; 0.625 mM): 19%
- Ratio of cytotoxicity (HEMn-MP cells [5]; 1.25 mM): 8%
- Ratio of cytotoxicity (HEMn-MP cells [5]; 2.5 mM): 26%
- Clinical side effect reported by users [6]: leukoderma-like side effects
